Measured values published in the NIST ThermoML archive (doi:10.1021/je700297c).
Numbers after ± are expanded uncertainties.

Experiment: activity coefficient (dimensionless); of the first substance listed, at infinite dilution; xn = mol fraction of the nth substance listed
Details: Liquid, Chromatography, x1 = 0

SMILES | activity coefficient (298 K) | activity coefficient (323 K) | activity coefficient (303 K) | activity coefficient (333 K)
c1ccccc1 [benzene] + CCCCn1cc[n+](C)c1.F[B-](F)(F)F | 1.5 ± 0.1 | 1.5 ± 0.1 | – | –
CCCCCCCC [octane] + C[n+]1ccn(CCCC#N)c1.O=S(=O)([N-]S(=O)(=O)C(F)(F)F)C(F)(F)F | – | 159 ± 11 | 191 ± 13 | –
C1CCOC1 [tetrahydrofuran] + C[n+]1ccn(CCCC#N)c1.N#CN=C=[N-] | – | 1.5 ± 0.1 | 1.6 ± 0.1 | –
C1CCOC1 [tetrahydrofuran] + CCCCCCCCCCCCCCCCCC(=O)[O-].CCCCn1cc[n+](C)c1 | – | 0.7 ± 0.1 | – | 0.6 ± 0.1
CCCCCC [hexane] + C[n+]1ccn(CCCC#N)c1.O=S(=O)([N-]S(=O)(=O)C(F)(F)F)C(F)(F)F | – | 113 ± 7.7 | 126 ± 8.6 | –
CCO [ethanol] + C[n+]1ccn(CCCC#N)c1.O=S(=O)([N-]S(=O)(=O)C(F)(F)F)C(F)(F)F | – | 1.4 ± 0.1 | 1.7 ± 0.1 | –
CCCCCCCC [octane] + CCCCCCCC[n+]1ccn(C)c1.F[B-](F)(F)F | 16.1 ± 1.1 | 11 ± 0.8 | – | –
C=CCCCC [hex-1-ene] + C[n+]1ccn(CCCC#N)c1.N#CN=C=[N-] | – | 60.4 ± 4.1 | 71.7 ± 4.9 | –
C1CCCCC1 [cyclohexane] + CCCCCCCC[n+]1ccn(C)c1.F[B-](F)(F)F | 5.3 ± 0.4 | 3.9 ± 0.3 | – | –
c1ccsc1 [thiophene] + CCCCCCCC[n+]1ccn(C)c1.F[B-](F)(F)F | 0.9 ± 0.1 | 0.8 ± 0.1 | – | –
C=CCCCC [hex-1-ene] + CCCCn1cc[n+](C)c1.F[B-](F)(F)F | 25.8 ± 1.8 | 21.8 ± 1.5 | – | –
CCCCCC [hexane] + CCCCn1cc[n+](C)c1.F[B-](F)(F)F | 65.9 ± 4.5 | 50.6 ± 3.5 | – | –
CC1CCCCC1 [methylcyclohexane] + CCCCCCCCCCCCCCCCCC(=O)[O-].CCCCn1cc[n+](C)c1 | – | 1.3 ± 0.1 | – | 1.3 ± 0.1
CCOC(C)=O [ethyl acetate] + CCCC[n+]1ccn(C)c1.O=S(=O)([N-]S(=O)(=O)C(F)(F)F)C(F)(F)F | – | 0.7 ± 0.1 | – | –
CCCCCCCC [octane] + C[n+]1ccn(CCCC#N)c1.N#CN=C=[N-] | – | 204 ± 14 | 264 ± 18 | –
Cc1ccccc1 [toluene] + C[n+]1ccn(CCCC#N)c1.O=S(=O)([N-]S(=O)(=O)C(F)(F)F)C(F)(F)F | – | 3.1 ± 0.2 | 3.3 ± 0.2 | –
C=CCCCC [hex-1-ene] + CCCCCCCCCCCCCCCC(=O)[O-].CCCCn1cc[n+](C)c1 | – | – | – | 1.1 ± 0.1
c1ccsc1 [thiophene] + CCCCn1cc[n+](C)c1.F[B-](F)(F)F | 1.7 ± 0.1 | 1.5 ± 0.1 | – | –
Cc1ccccc1 [toluene] + C[n+]1ccn(CCCC#N)c1.N#CN=C=[N-] | – | 4 ± 0.3 | 4.3 ± 0.3 | –
Cc1ccccc1 [toluene] + CCCCCCCC[n+]1ccn(C)c1.F[B-](F)(F)F | 1 ± 0.1 | 0.9 ± 0.1 | – | –
C1CCCCC1 [cyclohexane] + CCCCCCCCCCCCCCCC(=O)[O-].CCCCn1cc[n+](C)c1 | – | – | – | 0.9 ± 0.1
CCCCCCC [heptane] + CCCCCCCC[n+]1ccn(C)c1.F[B-](F)(F)F | 11 ± 0.8 | 8.4 ± 0.6 | – | –

SMILES | activity coefficient (298 K) | activity coefficient (323 K) | activity coefficient (303 K) | activity coefficient (333 K)
C1CCOC1 [tetrahydrofuran] + CCCCn1cc[n+](C)c1.F[B-](F)(F)F | 1.4 ± 0.1 | 1.4 ± 0.1 | – | –
c1ccccc1 [benzene] + CCCCCCCCCCCCCCCCCC(=O)[O-].CCCCn1cc[n+](C)c1 | – | 0.7 ± 0.1 | – | 0.7 ± 0.1
Cc1ccccc1 [toluene] + CCCCCCCCCCCCCCCCCC(=O)[O-].CCCCn1cc[n+](C)c1 | – | 0.8 ± 0.1 | – | 0.8 ± 0.1
CCO [ethanol] + C[n+]1ccn(CCCC#N)c1.N#CN=C=[N-] | – | 0.4 ± 0.1 | 0.5 ± 0.1 | –
C=CCCCCCC [oct-1-ene] + CCCCCCCCCCCCCCCCCC(=O)[O-].CCCCn1cc[n+](C)c1 | – | 1.7 ± 0.1 | – | 1.4 ± 0.1
C=CCCCC [hex-1-ene] + CCCC[n+]1ccn(C)c1.O=S(=O)([N-]S(=O)(=O)C(F)(F)F)C(F)(F)F | – | 6 ± 0.4 | – | –
C=CCCCCCC [oct-1-ene] + C[n+]1ccn(CCCC#N)c1.O=S(=O)([N-]S(=O)(=O)C(F)(F)F)C(F)(F)F | – | 106 ± 7.2 | 119 ± 8.1 | –
c1ccsc1 [thiophene] + C[n+]1ccn(CCCC#N)c1.N#CN=C=[N-] | – | 1.6 ± 0.1 | 1.7 ± 0.1 | –
O [water] + C[n+]1ccn(CCCC#N)c1.O=S(=O)([N-]S(=O)(=O)C(F)(F)F)C(F)(F)F | – | 1.8 ± 0.1 | – | –
C=CCCCC [hex-1-ene] + C[n+]1ccn(CCCC#N)c1.O=S(=O)([N-]S(=O)(=O)C(F)(F)F)C(F)(F)F | – | 47.1 ± 3.2 | 54.2 ± 3.7 | –
Cc1ccccc1 [toluene] + CCCCCCCCCCCCCCCC(=O)[O-].CCCCn1cc[n+](C)c1 | – | – | – | 0.8 ± 0.1
C=CCCCCCC [oct-1-ene] + CCCCn1cc[n+](C)c1.F[B-](F)(F)F | 59.1 ± 4 | 48.3 ± 3.3 | – | –
CC1CCCCC1 [methylcyclohexane] + C[n+]1ccn(CCCC#N)c1.N#CN=C=[N-] | – | 84.9 ± 5.8 | 118 ± 8.1 | –
CC1CCCCC1 [methylcyclohexane] + CCCCCCCC[n+]1ccn(C)c1.F[B-](F)(F)F | 6.7 ± 0.5 | 5.3 ± 0.4 | – | –
CCCCCCC [heptane] + CCCCCCCCCCCCCCCCCC(=O)[O-].CCCCn1cc[n+](C)c1 | – | 1.8 ± 0.1 | – | 1.5 ± 0.1
CCCCCCCC [octane] + CCCCCCCCCCCCCCCC(=O)[O-].CCCCn1cc[n+](C)c1 | – | – | – | 1.6 ± 0.1
CO [methanol] + CCCCCCCCCCCCCCCCCC(=O)[O-].CCCCn1cc[n+](C)c1 | – | 0.3 ± 0.1 | – | 0.3 ± 0.1
CCO [ethanol] + CCCCCCCCCCCCCCCC(=O)[O-].CCCCn1cc[n+](C)c1 | – | – | – | 0.4 ± 0.1
CCCCCC [hexane] + C[n+]1ccn(CCCC#N)c1.N#CN=C=[N-] | – | 145 ± 9.9 | 213 ± 15 | –
C=CCCCCCC [oct-1-ene] + CCCCCCCCCCCCCCCC(=O)[O-].CCCCn1cc[n+](C)c1 | – | – | – | 1.4 ± 0.1
C=CCCCC [hex-1-ene] + CCCCCCCC[n+]1ccn(C)c1.F[B-](F)(F)F | 4.9 ± 0.3 | 3.9 ± 0.3 | – | –
C=CCCCC [hex-1-ene] + CCCCCCCCCCCCCCCCCC(=O)[O-].CCCCn1cc[n+](C)c1 | – | 1.4 ± 0.1 | – | 1.2 ± 0.1

SMILES | activity coefficient (298 K) | activity coefficient (323 K) | activity coefficient (303 K) | activity coefficient (333 K)
O [water] + CCCC[n+]1ccn(C)c1.O=S(=O)([N-]S(=O)(=O)C(F)(F)F)C(F)(F)F | – | 2.6 ± 0.2 | – | –
c1ccccc1 [benzene] + C[n+]1ccn(CCCC#N)c1.O=S(=O)([N-]S(=O)(=O)C(F)(F)F)C(F)(F)F | – | 1.7 ± 0.1 | 1.8 ± 0.1 | –
CC1CCCCC1 [methylcyclohexane] + C[n+]1ccn(CCCC#N)c1.O=S(=O)([N-]S(=O)(=O)C(F)(F)F)C(F)(F)F | – | 66.2 ± 4.5 | 75.1 ± 5.1 | –
C=CCCCCCC [oct-1-ene] + CCCCCCCC[n+]1ccn(C)c1.F[B-](F)(F)F | 7.8 ± 0.5 | 6.6 ± 0.5 | – | –
CCCCCC [hexane] + CCCC[n+]1ccn(C)c1.O=S(=O)([N-]S(=O)(=O)C(F)(F)F)C(F)(F)F | – | 12.8 ± 0.9 | – | –
CO [methanol] + CCCC[n+]1ccn(C)c1.O=S(=O)([N-]S(=O)(=O)C(F)(F)F)C(F)(F)F | – | 0.8 ± 0.1 | – | –
c1ccsc1 [thiophene] + CCCC[n+]1ccn(C)c1.O=S(=O)([N-]S(=O)(=O)C(F)(F)F)C(F)(F)F | – | 0.7 ± 0.1 | – | –
CCO [ethanol] + CCCCCCCC[n+]1ccn(C)c1.F[B-](F)(F)F | 0.5 ± 0.1 | 0.4 ± 0.1 | – | –
CCOC(C)=O [ethyl acetate] + CCCCCCCCCCCCCCCC(=O)[O-].CCCCn1cc[n+](C)c1 | – | – | – | 1 ± 0.1
CO [methanol] + CCCCCCCCCCCCCCCC(=O)[O-].CCCCn1cc[n+](C)c1 | – | – | – | 0.3 ± 0.1
c1ccccc1 [benzene] + CCCC[n+]1ccn(C)c1.O=S(=O)([N-]S(=O)(=O)C(F)(F)F)C(F)(F)F | – | 0.8 ± 0.1 | – | –
CCCCCCC [heptane] + C[n+]1ccn(CCCC#N)c1.O=S(=O)([N-]S(=O)(=O)C(F)(F)F)C(F)(F)F | – | 126 ± 8.7 | 134 ± 9.2 | –
CCOC(C)=O [ethyl acetate] + C[n+]1ccn(CCCC#N)c1.O=S(=O)([N-]S(=O)(=O)C(F)(F)F)C(F)(F)F | – | 2.1 ± 0.2 | 2.1 ± 0.2 | –
c1ccsc1 [thiophene] + CCCCCCCCCCCCCCCCCC(=O)[O-].CCCCn1cc[n+](C)c1 | – | 0.8 ± 0.1 | – | 0.8 ± 0.1
C1CCOC1 [tetrahydrofuran] + CCCC[n+]1ccn(C)c1.O=S(=O)([N-]S(=O)(=O)C(F)(F)F)C(F)(F)F | – | 0.4 ± 0.1 | – | –
c1ccsc1 [thiophene] + CCCCCCCCCCCCCCCC(=O)[O-].CCCCn1cc[n+](C)c1 | – | – | – | 0.9 ± 0.1
CCCCCCC [heptane] + C[n+]1ccn(CCCC#N)c1.N#CN=C=[N-] | – | 197 ± 14 | 231 ± 16 | –
CCOC(C)=O [ethyl acetate] + C[n+]1ccn(CCCC#N)c1.N#CN=C=[N-] | – | 2.7 ± 0.2 | 2.8 ± 0.2 | –
CCCCCCCC [octane] + CCCC[n+]1ccn(C)c1.O=S(=O)([N-]S(=O)(=O)C(F)(F)F)C(F)(F)F | – | 23.4 ± 1.6 | – | –
c1ccsc1 [thiophene] + C[n+]1ccn(CCCC#N)c1.O=S(=O)([N-]S(=O)(=O)C(F)(F)F)C(F)(F)F | – | 1.4 ± 0.1 | 1.5 ± 0.1 | –
C1CCCCC1 [cyclohexane] + CCCCn1cc[n+](C)c1.F[B-](F)(F)F | 30.7 ± 2.1 | 24.7 ± 1.7 | – | –
C1CCCCC1 [cyclohexane] + CCCCCCCCCCCCCCCCCC(=O)[O-].CCCCn1cc[n+](C)c1 | – | 1.1 ± 0.1 | – | 1.2 ± 0.1
